Test results published in US6869912B2, “Biocidal composition” (priority 2000, dated 2005).

Experiments:
plants and animals = details: cited from earlier work
[1] = Particle size analysis using a Hiac/Royco 8000A Laser Extinction Counter; type: physicochemical; details: particles formed in Example 1
Excerpt: Particle size analysis, using a Hiac/Royco […] Laser Extinction Counter of a typical batch of the biocidal preparation gave;

[2] = Settling of copper (II) oxalate particles through water in a measuring cylinder; type: physicochemical; details: majority of particles, distributed on the surface of a measuring cylinder
Method: A portion of a biocidal composition prepared as described above was distributed on the surface of a measuring cylinder. […] After standing for approximately four hours, samples were taken by pipette from various portions of the water body. The concentration of copper (II) ions in the water body was measured, by way of atomic absorption spectrophotometry, at between 5 and 8 parts per million.

Structure (SMILES) | Concentration not toxic to almost all plants and animals (plants and animals; over extended periods of time) | Level tolerated by most plants and animals (plants and animals; over relatively short periods of time) [parts per million] | Predominant particle size [1] | Settling rate of particles [2]
[Cu+2] [copper (II) ions] | up to 2 parts per million | 10 | – | –
O=C([O-])C(=O)[O-].[Cu+2] [copper (II) oxalate] | – | – | below 10 μm | 2-5 metres per hour
